In US9458414B2, “Cleaning, surfactant, and personal care compositions” (SEGETIS, INC., priority 2012, dated 2016):

How the values were obtained:
[1] = Coupling of water and octanoic acid by hydrotropes (amount producing a single phase); format: physicochemical
Protocol: Hydrotropes were added to a two-component mixture of octanoic acid and deionized (DI) water to find the amount that produced a single phase from the two separate phases of water and octanoic acid.
The percent hydrotrope required to compatibilize phases (and the resulting percent octanoic acid) were calculated and the results are shown in Table 4 as well as FIG. 1.

[2] = Coupling of water and soy methyl ester by hydrotropes; format: physicochemical
Protocol: Hydrotropes were added to a two-component mixture of soy methyl ester and DI water to find the amount that produced a single phase from the two separate phases of water and soy methyl ester. The percent hydrotrope required to compatibilize the phases was calculated.

[3] = Coupling of water and castor oil by hydrotropes; format: physicochemical
[4] = Hard surface cleaning formulation freeze-thaw testing; format: physicochemical; conditions: for Freeze-thaw visual observation: Example 5 formulation containing the solvent, 0° C. freezer >12 hours, thaw to room temperature
Protocol: Formulations as in Example 5 were prepared by combining ingredients and mixing until homogeneous. Freeze-thaw testing was performed over 3 cycles. Each cycle was putting the formulations into a 0° C. freezer for greater than 12 hours, then taking them out and allowing the samples to thaw to room temperature and then making the visual observation.

[5] = Hard surface cleaning formulation heat cloud point testing; format: physicochemical; conditions: Example 5 formulation containing the solvent; for Cloud point: heated while mixing
Protocol: Formulations as in Example 5 were prepared by combining ingredients and mixing until homogeneous.

[6] = Vanillin composition in ketal alcohol (1a); format: physicochemical; conditions: 75% ketal alcohol (1a) to 25% vanillin by weight, room temperature
Protocol: Vanillin was dissolved into the ketal alcohol (1a) at room temperature using 75% ketal alcohol (1a) to 25% vanillin by weight.

[7] = Hard surface cleaning formulation pH testing over 7 days; format: physicochemical; conditions: 5 g solvent per 100 g
Protocol: Formulations were prepared by combining ingredients and mixing until homogeneous. Next, pH measurements were taken over 7 days.

[8] = Hair dye active solubility testing
Protocol: Two component mixtures using ketal alcohol (1a) and the actives shown in Table 13 were prepared by mixing the components at various proportions in a vial at room temperature and then heating in a lab oven at 80° C. for 10 minutes and then shaking.
Comparative formulations using EtLGK and ketal alcohol (1a) are shown below in Tables 14 and 15.

[9] = ratio of water:octanoic acid 10:90
[10] = ratio of water:octanoic acid 30:70
[11] = ratio of water:octanoic acid 50:50
[12] = ratio of water:octanoic acid 70:30
[13] = ratio of water:octanoic acid 90:10
[14] = water:octanoic acid 10:90 (DI water 0.5 g, octanoic acid 4.5 g)
[15] = water:octanoic acid 30:70 (DI water 1.5 g, octanoic acid 3.5 g)
[16] = water:octanoic acid 50:50 (DI water 5.0 g, octanoic acid 5.0 g)
[17] = water:octanoic acid 70:30 (DI water 3.5 g, octanoic acid 1.5 g)
[18] = water:octanoic acid 90:10 (DI water 4.5 g, octanoic acid 0.5 g)
[19] = ratio of water:soy methyl esters 10:90
[20] = ratio of water:soy methyl esters 30:70
[21] = ratio of water:soy methyl esters 50:50
[22] = ratio of water:soy methyl esters 70:30
[23] = ratio of water:soy methyl esters 90:10
[24] = ratio of water to castor oil 10:90
[25] = ratio of water to castor oil 30:70
[26] = ratio of water to castor oil 50:50
[27] = ratio of water to castor oil 70:30
[28] = ratio of water to castor oil 90:10

## CC1COC(C)(CCCO)O1 (stereo not shown) [Ketal alcohol (1a)]
[1]; [9]
  Wt % Hydrotrope required to compatibilize phases: 31%
  Wt % Octanoic Acid (resulting, at compatibilization): 62%
[1]; [10]
  Wt % Hydrotrope required to compatibilize phases: 53%
  Wt % Octanoic Acid (resulting, at compatibilization): 33%
[1]; [11]
  Wt % Hydrotrope required to compatibilize phases: 54%
  Wt % Octanoic Acid (resulting, at compatibilization): 23%
[1]; [12]
  Wt % Hydrotrope required to compatibilize phases: 55%
  Wt % Octanoic Acid (resulting, at compatibilization): 14%
[1]; [13]
  Wt % Hydrotrope required to compatibilize phases: 46%
  Wt % Octanoic Acid (resulting, at compatibilization): 5%
[1]; [14]
  Amount of hydrotrope that produced a single phase: 2.27 grams
[1]; [15]
  Amount of hydrotrope that produced a single phase: 5.63 grams
[1]; [16]
  Amount of hydrotrope that produced a single phase: 11.81 grams
[1]; [17]
  Amount of hydrotrope that produced a single phase: 6.07 grams
[1]; [18]
  Amount of hydrotrope that produced a single phase: 4.33 grams
[2]; [19]
  Wt % Hydrotrope required to compatibilize the phases: 58%
  Wt % Soy Methyl Esters (at compatibilization): 38%
[2]; [20]
  Wt % Hydrotrope required to compatibilize the phases: 73%
  Wt % Soy Methyl Esters (at compatibilization): 19%
[2]; [21]
  Wt % Hydrotrope required to compatibilize the phases: 81%
  Wt % Soy Methyl Esters (at compatibilization): 10%
[2]; [22]
  Wt % Hydrotrope required to compatibilize the phases: 83%
  Wt % Soy Methyl Esters (at compatibilization): 5%
[2]; [23]
  Wt % Hydrotrope required to compatibilize the phases: 81%
  Wt % Soy Methyl Esters (at compatibilization): 2%
[3]; [24]
  Wt % Castor oil (at compatibilization): 32%
  Wt % Hydrotrope required to compatibilize phases: 64%
[3]; [25]
  Wt % Castor oil (at compatibilization): 21%
  Wt % Hydrotrope required to compatibilize phases: 71%
[3]; [26]
  Wt % Castor oil (at compatibilization): 11%
  Wt % Hydrotrope required to compatibilize phases: 79%
[3]; [27]
  Wt % Castor oil (at compatibilization): 5%
  Wt % Hydrotrope required to compatibilize phases: 82%
[3]; [28]
  Wt % Castor oil (at compatibilization): 2%
  Wt % Hydrotrope required to compatibilize phases: 84%
[4]; Cycle 1
  Freeze-thaw visual observation: stable;
[4]; Cycle 2
  Freeze-thaw visual observation: gradient;
[4]; Cycle 3
  Freeze-thaw visual observation: gradient;
[4]; formulation containing the solvent, 3 cycles
  Freeze-thaw performance overall: performed similarly to or better than the 2-butoxyethanol
[5]
  Cloudiness on heating: showed no signs of cloudiness
  Cloud point: >100 °C

## COc1cc(C=O)ccc1O [Vanillin]
[6]
  Appearance of mixture in ketal alcohol (1a): homogeneous clear liquid with no signs of precipitate

## CCOC(=O)CCC1(C)OCC(CO)O1 (stereo not shown) [EtLGK, glycerol ketal of ethyl levulinic acid]
[1]; [9]
  Wt % Hydrotrope required to compatibilize phases: 38%
  Wt % Octanoic Acid (resulting, at compatibilization): 55%
[1]; [10]
  Wt % Hydrotrope required to compatibilize phases: 59%
  Wt % Octanoic Acid (resulting, at compatibilization): 29%
[1]; [11]
  Wt % Hydrotrope required to compatibilize phases: 69%
  Wt % Octanoic Acid (resulting, at compatibilization): 15%
[1]; [12]
  Wt % Hydrotrope required to compatibilize phases: 66%
  Wt % Octanoic Acid (resulting, at compatibilization): 10%
[1]; [13]
  Wt % Hydrotrope required to compatibilize phases: 58%
  Wt % Octanoic Acid (resulting, at compatibilization): 4%
[1]; [14]
  Amount of hydrotrope that produced a single phase: 3.11 grams
[1]; [15]
  Amount of hydrotrope that produced a single phase: 7.2 grams
[1]; [16]
  Amount of hydrotrope that produced a single phase: 22.68 grams
[1]; [17]
  Amount of hydrotrope that produced a single phase: 9.79 grams
[1]; [18]
  Amount of hydrotrope that produced a single phase: 6.84 grams
[2]; [19]
  Wt % Hydrotrope required to compatibilize the phases: 78%
  Wt % Soy Methyl Esters (at compatibilization): 20%
[2]; [20]
  Wt % Hydrotrope required to compatibilize the phases: 83%
  Wt % Soy Methyl Esters (at compatibilization): 12%
[2]; [21]
  Wt % Hydrotrope required to compatibilize the phases: 86%
  Wt % Soy Methyl Esters (at compatibilization): 7%
[2]; [22]
  Wt % Hydrotrope required to compatibilize the phases: 86%
  Wt % Soy Methyl Esters (at compatibilization): 4%
[2]; [23]
  Wt % Hydrotrope required to compatibilize the phases: 84%
  Wt % Soy Methyl Esters (at compatibilization): 2%
[3]; [24]
  Wt % Castor oil (at compatibilization): 35%
  Wt % Hydrotrope required to compatibilize phases: 61%
[3]; [25]
  Wt % Castor oil (at compatibilization): 17%
  Wt % Hydrotrope required to compatibilize phases: 76%
[3]; [26]
  Wt % Castor oil (at compatibilization): 9%
  Wt % Hydrotrope required to compatibilize phases: 82%
[3]; [27]
  Wt % Castor oil (at compatibilization): 4%
  Wt % Hydrotrope required to compatibilize phases: 86%
[3]; [28]
  Wt % Castor oil (at compatibilization): 1%
  Wt % Hydrotrope required to compatibilize phases: 85%
[7]
  pH stability of the formulation containing the solvent: underwent significant pH drift downward
[4]; Cycle 1
  Freeze-thaw visual observation: stable;
[4]; Cycle 2
  Freeze-thaw visual observation: gradient;
[4]; Cycle 3
  Freeze-thaw visual observation: gradient;
[5]
  Cloudiness on heating: showed no signs of cloudiness
  Cloud point: >100 °C

## CCOC(=O)CCC1(C)OCC(CO)O1 (stereo not shown) [Ketal alcohol (1a)]
[7]
  pH stability of the formulation containing the solvent: maintained the same pH as the formulation containing 2-butoxyethanol and the control formulation

## CCCCOCCO [2-butoxyethanol]
[1]; [9]
  Wt % Hydrotrope required to compatibilize phases: 33%
  Wt % Octanoic Acid (resulting, at compatibilization): 60%
[1]; [10]
  Wt % Hydrotrope required to compatibilize phases: 52%
  Wt % Octanoic Acid (resulting, at compatibilization): 34%
[1]; [11]
  Wt % Hydrotrope required to compatibilize phases: 57%
  Wt % Octanoic Acid (resulting, at compatibilization): 21%
[1]; [12]
  Wt % Hydrotrope required to compatibilize phases: 61%
  Wt % Octanoic Acid (resulting, at compatibilization): 12%
[1]; [13]
  Wt % Hydrotrope required to compatibilize phases: 52%
  Wt % Octanoic Acid (resulting, at compatibilization): 5%
[1]; [14]
  Amount of hydrotrope that produced a single phase: 2.47 grams
[1]; [15]
  Amount of hydrotrope that produced a single phase: 5.39 grams
[1]; [16]
  Amount of hydrotrope that produced a single phase: 6.74 grams
[1]; [17]
  Amount of hydrotrope that produced a single phase: 7.9 grams
[1]; [18]
  Amount of hydrotrope that produced a single phase: 5.43 grams
[4]; Cycle 1
  Freeze-thaw visual observation: separation;
[4]; Cycle 2
  Freeze-thaw visual observation: separation;
[4]; Cycle 3
  Freeze-thaw visual observation: two phases;
[5]
  Cloud point: 44 °C
[5]; listed as Butyl Cellosolve
  Cloud point: 44 °C

## Nc1ccc(N)cc1 [p-phenylene diamine]
[8]; Table 15, weight percentage active 1%
  Ketal Alcohol (1a) Solubility: insoluble
[8]; weight percentage active 1%, 80° C. 10 minutes, shaking, room temperature 24 hours
  Ketal Alcohol (1a) Solubility: soluble
[8]; weight percentage active 5% in EtLGK
  EtLGK Solubility: soluble
[8]; weight percentage active 5%, 80° C. 10 minutes, shaking, room temperature 24 hours
  Ketal Alcohol (1a) Solubility: soluble
[8]; weight percentage active 10%, 80° C. 10 minutes, shaking, room temperature 24 hours
  Ketal Alcohol (1a) Solubility: insoluble
